Assay [1] concerns the target T1, hA3AR (Homo sapiens, UniProt P0DMS8).
T1 sequence (P0DMS8 1-318): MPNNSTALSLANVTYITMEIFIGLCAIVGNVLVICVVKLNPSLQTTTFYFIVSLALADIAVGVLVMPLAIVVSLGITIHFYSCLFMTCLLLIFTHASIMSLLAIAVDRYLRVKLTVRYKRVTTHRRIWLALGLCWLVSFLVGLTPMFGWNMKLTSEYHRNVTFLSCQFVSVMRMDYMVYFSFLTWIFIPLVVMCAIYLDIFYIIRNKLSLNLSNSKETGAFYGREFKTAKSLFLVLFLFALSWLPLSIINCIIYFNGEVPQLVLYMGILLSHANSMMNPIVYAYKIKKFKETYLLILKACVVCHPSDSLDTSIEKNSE
Description: Time-dependent [3H]PSB-11 displacement with or without 4 h preincubation. In kind it is binding. The conditions noted are these: no preincubation, 0.5 h co-incubation with [3H]PSB-11, 25 °C.

The target in assay [2] is T1, hA3AR. Kind of assay: Radioligand competition association assay with [3H]PSB-11. It is filed as binding. The conditions noted are these: competition association curve, Figure 3.
Assay [3] concerns the target T1, hA3AR. It is filed as biochemical. The conditions noted are these: for mode of antagonism: [35S]GTPγS binding assays, overall; for Schild slope, co-incubation: antagonist co-incubated with 2-Cl-IB-MECA for 30 min at 25 °C; for type of antagonism in co-incubation experiment: co-incubated with 2-Cl-IB-MECA; for type of antagonism in preincubation experiment: pretreatment with antagonist before 2-Cl-IB-MECA.

The target in assay [4] is T1, hA3AR. The conditions noted are these: 25 °C; ref 7 (Xia et al.); cited from earlier work.

Molecules are shown by their SMILES. Some results are limits rather than exact numbers.

On to `CCCn1c(=O)c2c(nc3cc(OC)ccn32)n(CCCNC(=O)c2ccc(S(C)(=O)=O)cc2)c1=O` [compound 19, N-(3-(8-Methoxy-2,4-dioxo-3-propyl-3,4-dihydropyrido[2,1-f]purin-1(2H)-yl)propyl)-4-(methylsulfonyl)benzamide], for which the “hA3AR pKi (pre-0 h)” value on hA3AR [1] came out at 6.2 ± 0.03. Moreover, the “time to reach equilibrium” value on hA3AR [2] is at most 30 min. At hA3AR [3], the mode of antagonism result is listed as “competitive surmountable”; the “Schild slope, co-incubation” value came out at 1.0 ± 0.1; the “type of antagonism in co-incubation experiment” value is “surmountable antagonism”; the “type of antagonism in preincubation experiment” value is listed as “surmountable antagonism”. The “Schild slope, preincubation” value on hA3AR [3] (antagonist preincubated 60 min at 25 °C before 2-Cl-IB-MECA for 30 min) turned out to be 1.1 ± 0.1.
Consider `CCCn1c(=O)c2c(nc3cc(OC)ccn32)n(CCCNC(=O)c2ccc(S(=O)(=O)F)cc2)c1=O` [compound 17b, 4-((3(8-Methoxy-2,4-dioxo-3-propyl-3,4-dihydropyrido[2,1-f]purin-1(2H)yl)propyl)carbamoyl)benzenesulfonyl Fluoride], for which, on hA3AR [3], the mode of antagonism result is recorded as “competitive insurmountable”; the “Schild slope, co-incubation” value amounted to 1.1 ± 0.1; the “type of antagonism in co-incubation experiment” value is reported as “surmountable antagonism”; the “type of antagonism in preincubation experiment” value was “insurmountable antagonism”.
As for `CC[C@@H]1CN2C(=O)N(C)c3nc(-c4ccccc4)[nH]c3C2=N1` [[^3H]PSB-11, [^3H]8-Ethyl-4-methyl-2-phenyl-(8R)-4,5,7,8-tetrahydro-1H-imidazo[2,1-i]-purin-5-one], on hA3AR [4], the “koff (k2) of radioligand” value was 0.3992 ± 0.02 min^–1 and the “kon (k1) of radioligand” value is reported as 0.281 ± 0.04 × 10^8 M^–1 min^–1.

The values above are taken from PMC6466477 (Journal of Medicinal Chemistry, 2019).
